According to patent publication US11999794B2, “Human mesothelin chimeric antigen receptors and uses thereof” (Novartis AG, priority 2013, dated 2024):

Test system: mesoCAR TILs against EMMESO tumor cells
Assay: Ex vivo killing and cytokine release assays with blocking agents
Type: cell-based, human
Details: blocking agent added ex vivo
Experimental: T cell Effector Assays. Effector T cells were cocultured with firefly luciferase expressing tumor cells at different ratios for a specified period time. At the end of the co-culture incubation period, supernatant was saved for IFN levels by ELISA (Biolegend #430106), wells were washed, and remaining tumor cells were lysed with 1× cell lysis buffer for 30 minutes. The luciferase activity in the lysates was analyzed using the Luciferase Assay System on a GloMax Multi Detection System (Promega.) Results are reported as percent killing based on luciferase activity in wells with tumor, but no T cells. (% killing=100-((RLU from well with effector and target cell coculture)/(RLU from well with target cells)×100)). Effector-to-target ratios represent total T cells per target cell.
Given these expression data, the potential functional importance of specific inhibitory pathways in mesoCAR TILs was studied by introducing available blocking agents during the ex vivo killing and cytokine release assays. […] The relatively high dose of 10 ug/ml anti-PDL1 antibody was based on previously published investigations on cancer immunotherapy.

O.O.O.O.O.O.O.O.O.O=C([O-])[C@@H]1[O][Sb]2([O-])([O][Sb]34([OH])[O][C@H]([C@H](O)CO)[C@H]([O]3)[C@H](C(=O)[O-])[O]4)[O][C@H]([C@H](O)CO)[C@@H]1[O]2.[Na+].[Na+].[Na+] [SSG, sodium stibogluconate]
killing ability of cryo mesoCAR T cells: slightly inhibited | killing activity of mesoCAR TILs: significantly increased | tumor-induced IFN secretion of mesoCAR TILs: significantly increasing
